Laboratory results taken from patent US7951920B2, “Conjugate of an antibody against CCR5 and an antifusogenic peptide” (Roche Palo Alto LLC, priority 2006, dated 2011).

Experiments:
[1] = test system: pseudotyped NL-Bal viruses; format: cell-based, HIV; details: pseudotyped NL-Bal virus, JC53-BL cells, 3 day incubation, inhibition of luciferase activity
Description: For the production of pseudotyped NL-Bal viruses, plasmid pNL4-3Δenv (HIV pNL4-3 genomic construct with a deletion within the env gene) and pcDNA3.1/NL-BAL env [pcDNA3.1 plasmid containing NL-Bal env gene (obtained from NIBSC Centralized Facility for AIDS Reagents)] were co-transfected into the HEK 293FT cell line (Invitrogen), cultured in Dulbecco's modified […] (DMEM) containing 10% fetal calf serum (FCS), 100 U/mL Penicillin, 100 μg/mL Streptomycin, 2 mM L-glutamine and 0.5 mg/mL geniticin (all media from Invitrogen/Gibco). The supernatants containing pseudotyped viruses were harvested two days following transfection, and cellular debris was removed by filtration through a 0.45 μm pore size PES (polyethersulfone) filter (Nalgene) and stored at −80° C. in aliquots. For normalization in assay performance, virus stock aliquots were used to infect JC53-BL (US NIH Aids Reagent Program) cells yielding approximately 1.5×10^5 RLU (relative light units) per well. Test antifusogenic peptide-anti-CCR5 antibody conjugates, reference antibodies and reference antifusogenic peptides (T-20, T-1249, T-651 and T-2635) were serially diluted in 96-well plates. The assay was carried out in quadruplicates. Each plate contained cell control and virus control wells. The equivalent of 1.5×10^5 RLU of virus stocks were added to each well, then 2.5×10^4 JC53-BL cells were added to each well, with a final assay volume of 200 μl per well. After 3 day incubation at 37° C., 90% Relative Humidity, and 5% CO2, media were aspirated and 50 μl of Steady-Glo® Luciferase Assay System (Promega) was added to each well. The assay plates were read on a Luminometer (Luminoskan, Thermo Electron Corporation) after 10 minutes of incubation at room temperature. Percent inhibition of luciferase activity was calculated for each dose point after subtracting the background, and IC50 and IC90-values were determined by using XLfit curve fitting software for Excel (version 3.0.5 Build12; […]).

[2] = test system: CCR5 mutant K171A or E172A; experiment: Epitope binding by alanine scanning (epitope mapping); set-up: species or system human; details: 100% epitope binding is defined for wild-type CCR5
Description: Epitope binding is investigated by using alanine scanning according to the method described by W. C. Olson et al. (J. Virol. (1999) 73:4145-55) for epitope mapping. […] Epitope binding for antibody C is found to be 20% for CCR5 mutant K171A or E172A (glu 172 is mutated to ala). 100% epitope binding is defined for wild-type CCR5. A further preferred anti-CCR5 antibody binds to the same epitope as antibody C binds.

[3] = test system: HIV; experiment: HIV assays; format: cell-based; details: comparison with antibody 2D7

Molecule	Antiviral activity IC50 [1] [mg/L]	Antiviral activity IC90 [1] [mg/L]	Epitope binding [2] [%]	IC50 values compared with antibody 2D7 [3]
CC[C@H](C)[C@H](NC(=O)[C@H](CCC(N)=O)NC(=O)[C@H](C)NC(=O)[C@H](CCC(N)=O)NC(=O)[C@H](CCC(=O)O)NC(=O)[C@H](CC(C)C)NC(=O)[C@H](CC(C)C)NC(=O)[C@H](C)NC(=O)[C@@H](NC(=O)[C@@H](NC(=O)[C@H](CCCCN)NC(=O)[C@H](CCC(N)=O)NC(=O)[C@H](CCC(=O)O)NC(=O)[C@H](Cc1c[nH]c2ccccc12)NC(=O)[C@H](CCC(=O)O)NC(=O)[C@H](CCC(N)=O)NC(=O)[C@H](Cc1c[nH]c2ccccc12)NC(C)=O)[C@@H](C)CC)[C@@H](C)O)C(=O)N[C@@H](CCC(N)=O)C(=O)N[C@@H](CCC(N)=O)C(=O)N[C@@H](CCC(=O)O)C(=O)N[C@@H](CCCCN)C(=O)N[C@@H](CC(N)=O)C(=O)N[C@@H](CCC(=O)O)C(=O)N[C@@H](Cc1ccc(O)cc1)C(=O)N[C@@H](CCC(=O)O)C(=O)N[C@@H](CC(C)C)C(=O)N[C@@H](CCC(N)=O)C(=O)N[C@@H](CCCCN)C(=O)N[C@@H](CC(C)C)C(=O)N[C@@H](CC(=O)O)C(=O)N[C@@H](CCCCN)C(=O)N[C@@H](Cc1c[nH]c2ccccc12)C(=O)N[C@@H](C)C(=O)N[C@@H](CO)C(=O)N[C@@H](CC(C)C)C(=O)N[C@@H](Cc1c[nH]c2ccccc12)C(=O)N[C@@H](CCC(=O)O)C(=O)N[C@@H](Cc1c[nH]c2ccccc12)C(=O)N[C@@H](Cc1ccccc1)C(N)=O [T-1249]	0.011	0.09		
CC[C@H](C)[C@H](NC(=O)[C@H](C)NC(=O)[C@H](CCCNC(=N)N)NC(=O)[C@H](CC(=O)O)NC(=O)[C@H](Cc1c[nH]c2ccccc12)NC(=O)[C@H](C)NC(=O)[C@H](CCC(=O)O)NC(=O)[C@H](Cc1c[nH]c2ccccc12)NC(=O)[C@@H](NC(=O)[C@@H](NC(C)=O)[C@@H](C)O)[C@@H](C)O)C(=O)N[C@@H](C)C(=O)N[C@@H](CCC(=O)O)C(=O)N[C@@H](Cc1ccc(O)cc1)C(=O)N[C@@H](C)C(=O)N[C@@H](C)C(=O)N[C@@H](CCCNC(=N)N)C(=O)N[C@H](C(=O)N[C@@H](CCC(=O)O)C(=O)N[C@@H](C)C(=O)N[C@@H](CC(C)C)C(=O)N[C@H](C(=O)N[C@@H](CCCNC(=N)N)C(=O)N[C@@H](C)C(=O)N[C@@H](C)C(=O)N[C@@H](CCC(N)=O)C(=O)N[C@@H](CCC(=O)O)C(=O)N[C@@H](CCC(N)=O)C(=O)N[C@@H](CCC(N)=O)C(=O)N[C@@H](CCC(=O)O)C(=O)N[C@@H](CCCCN)C(=O)N[C@@H](CC(N)=O)C(=O)N[C@@H](CCC(=O)O)C(=O)N[C@@H](C)C(=O)N[C@@H](C)C(=O)N[C@@H](CC(C)C)C(=O)N[C@@H](CCCNC(=N)N)C(=O)N[C@@H](CCC(=O)O)C(=O)N[C@@H](CC(C)C)C(N)=O)[C@@H](C)CC)[C@@H](C)CC [T-2635]	0.014	0.161		
enfuvirtide	0.206	3.955		
Antibody C: anti-CCR5 antibody, variable domains SEQ ID NO:5, 6 (antibody, V domains shown, mouse) VH: QVQLKQSGPGLVRPSQSLSITCTVSGFPLGIFGVHWVRQSPGKGLEWLGVIWKGGNTDYNAAFMSRLRITKDNSKSQVFFRMNSLQTDDTAIYYCAKVNLADAMDYWGQGTSVIVSS VL: DIQMTQSPASLSASVGETVTITCRASGNIHGYLAWFQQKQGKSPQLLVYNTKTLAEGVPSRFSGSGSGTQFSLKINSLQPEDFGNYYCQHHYDLPRTFGGGTKLEIKR			20	lower IC50 values than antibody 2D7
